Where “and” joins values, the source holds several entries; their conditions need not be identical. Equal values may be shown once.
Key:
[1] = Fluorescence emission (emission maximum); assay type: physicochemical
Procedure: (§1) Depending on the basic structure and substitution, the absorption maxima lie in the entire range of visible light, with a focus at 500-530 nm. The compounds show a high Stokes shift in the range of 80 nm. The absorption is measured, for example, at 25° C. in aqueous or ethanolic solutions with an extinction of 1.0 using a Specord 205 from Analytik Jena, wherein the aqueous solutions are preferably phosphate-buffered salt solutions (PBS buffer; approx. 100 mM sodium chloride and 100 mM total phosphate) and have a pH of 7.5. For example, the emission is measured at 25° C. in dilute aqueous or ethanolic solutions with an extinction of 0.1 using a FP-6600 spectrofluorometer from Jasco, wherein the dilute aqueous solutions are preferably phosphate-buffered salt solutions (PBS buffer; about 100 mM sodium chloride and 100 mM total phosphate) and have a pH of 7.5.

[2] = UV-Vis absorption (absorption maximum, extinction coefficient); assay type: physicochemical
Procedure: as §1

SMILES	λem ([1]; in ethanol) [nm]	λmax ([2]; UV-Vis in ethanol)	ε ([2]; UV-Vis in ethanol)	λem ([1]; in PBS) [nm]	ε ([2]; UV-Vis in PBS)	λmax ([2]; UV-Vis in PBS) [nm]
CCOC1=Cc2[o+]c3cc(N(CC)CC)ccc3cc2C(C)(C)C1.F[B-](F)(F)F [Compound 2, 6-ethoxy-N,N-diethyl-8,8-dimethyl-7H-xanthene-10-ium-3-amine tetrafluoroborate]	605	531 nm	–	–	–	–
CC1(C)CC(NCCCS(=O)(=O)[O-])=Cc2[o+]c3cc(N(CCCCCC(=O)ON4C(=O)CCC4=O)CCCS(=O)(=O)[O-])ccc3cc21.[Na+] [Compound 6, 3-[[6-[[6-(2,5-dioxopyrrolidine-1-yl)oxy-6-oxo-hexyl]-(3-sulfonatopropyl)amino]-1,1-dimethyl-2H-xanthene-10-ium-3-yl]amino]propane-1-sulfonate Sodium Salt]	570	512 nm	44,000 l/mol*cm	–	–	–
CCN(CCCCCC(=O)O)c1ccc2cc3c([o+]c2c1)C=C(Nc1ccccc1)CC3(C)C.[Cl-] [Compound 13, 6-[(6-anilino-8,8-dimethyl-7H-xanthene-10-ium-3-yl)-ethyl-amino]hexanoic Acid Chloride Salt]	603	532 nm	44,000 l/mol*cm	609	38,000 l/mol*cm	526
CCN(CCCCCC(=O)O)c1ccc2cc3c([o+]c2c1)C=C(Nc1ccc2cc(S(=O)(=O)[O-])ccc2c1)CC3(C)C [Compound 15, 6-[[6-[5-carboxypentyl(ethyl)amino]-1,1-dimethyl-2H-xanthene-10-ium-3-yl]amino]naphthalene-2-sulfonate]	619	546 nm	32,000 l/mol*cm	–	–	–
CN(C1=Cc2[o+]c3cc(OCCCCCC(=O)O)ccc3cc2C(C)(C)C1)c1ccccc1.[Cl-] [Compound 18, 6-[[8,8-dimethyl-6-(N-methylanilino)-7H-xanthene-10-ium-3-yl]oxy]hexanoic Acid Chloride Salt]	520	452 nm and 469 nm	–	–	–	–
CN(C1=Cc2[o+]c3cc(OCCCCCC(=O)O)c(S(=O)(=O)[O-])cc3cc2C(C)(C)C1)c1ccc(S(=O)(=O)[O-])cc1.[Na+] [Compound 19, 3-(5-carboxypentoxy)-8,8-dimethyl-6-(N-methyl-4-sulfonato-anilino)-7H-xanthene-10-ium-2-sulfonate Sodium Salt]	522	465 nm	18,000 l/mol*cm	509	16500 L/mol/cm	460
CC1=CC(C)(C)N(CCCS(=O)(=O)[O-])c2cc3[o+]c4c(cc3cc21)C(C)(C)CC(NCCCCCC(=O)O)=C4 [Compound 22, 3-[9-(5-carboxypentylamino)-2,2,4,7,7-pentamethyl-8H-chromeno[3,2-g]quinolin-11-ium-1-yl]propane-1-sulfonate]	589	531 nm	39,000 l/mol*cm	590	37500 L/mol/cm	516
CCN(CCCCCC(=O)O)c1ccc2cc3c([o+]c2c1)C=C(Nc1cccc(N(C)C)c1)CC3(C)C.[Cl-] [Compound 26, 6-[[6-[3-(dimethylamino)anilino]-8,8-dimethyl-7H-xanthene-10-ium-3-yl]-ethyl-amino]hexanoic Acid Chloride Salt]	573	531 nm	34,000 l/mol*cm	–	–	–
CCN(CCCCCC(=O)O)c1ccc2cc3c([o+]c2c1)C=C(Nc1ccc(N)cc1)CC3(C)C.[Cl-] [Compound 27, 6-[[6-(4-aminoanilino)-8,8-dimethyl-7H-xanthene-10-ium-3-yl]-ethyl-amino]hexanoic Acid Chloride Salt]	612	530 nm	35,000 l/mol*cm	–	–	–
CCN(CCCCCC(=O)O)c1ccc2cc3c([o+]c2c1)C=C(N(Cc1ccccn1)Cc1ccccn1)CC3(C)C.[Cl-] [Compound 28, 6-[[6-[bis(2-pyridylmethyl)amino]-8,8-dimethyl-7H-xanthene-10-ium-3-yl]-ethyl-amino]hexanoic Acid Chloride Salt]	593	531 nm	28,000 l/mol*cm	–	–	–
CCN(CCCCCC(=O)O)c1ccc2cc3c([o+]c2c1)C=C(/C=C1\C=CC=CN1)CC3(C)C.[Cl-] [Compound 29, 6-[[8,8-dimethyl-6-[(E)-1H-pyridine-2-ylidenemethyl]-7H-xanthene-10-ium-3-yl]-ethyl-amino]hexanoic Acid Chloride Salt]	541	434 nm	24,000 l/mol*cm	–	–	–
CCN(CCCCCC(=O)O)c1ccc2cc3c([o+]c2c1)C=C(c1ccc(N(C)C)cc1)CC3(C)C.[Cl-] [Compound 30, 6-[[6-[4-(dimethylamino)phenyl]-8,8-dimethyl-7H-xanthene-10-ium-3-yl]-ethyl-amino]hexanoic Acid Chloride Salt]	713	664 nm	30,000 l/mol*cm	–	–	–
CCN(CC)c1ccc2cc3c([o+]c2c1)C=C(C)CC3(C)C.[Cl-] [Compound 31]	628	538 nm	9,800 l/mol*cm	–	–	–
CCN(CC)c1ccc2cc3c([o+]c2c1)C=C(/C=C/C=C1/N(CCCCCC(=O)O)c2ccc(S(=O)(=O)[O-])cc2C1(C)C)CC3(C)C [Compound 32, (2E)-1-(5-sarboxypentyl)-2-[(E)-3-[6-(diethylamino)-1,1-dimethyl-2H-xantheneium-3-yl]prop-2-enyliden]-3,3-dimethyl-indoline-5-sulfonate]	795	770 nm	143,600 l/mol*cm	788	75000 L/mol/cm	755
CCN(CC)c1ccc2c(c1)OC1=C/C(=C/C=C3/C(=O)N(CCCCCC(=O)O)C(=O)N(CCCS(=O)(=O)[O-])C3=O)CC(C)(C)C1=C2.[Na+] [Compound 33, 3-[(5Z)-3-(5-carboxypentyl)-5-[(2E)-2-[6-(diethylamino)-1,1-dimethyl-2H-xanthene-3-ylidene]ethylidene]-2,4,6-trioxo-hexahydropyrimidin-1-yl]propane-1-sulfonate Sodium Salt]	719	683 nm	67,000 l/mol*cm	–	–	–
CCN(CC)c1ccc2c(c1)OC1=CC(=O)CC(C)(C)C1=C2 [Compound 34, 6-(diethylamino)-1,1-dimethyl-2H-xanthene-3-one]	540	440 nm	24,800 l/mol*cm	558	23000 L/mol/cm	450
CCN(CCCCCC(=O)O)c1ccc2c(c1)OC1=CC(=O)CC(C)(C)C1=C2 [Compound 35, 6-[(8,8-dimethyl-6-oxo-7H-xanthene-3-yl)-ethyl-amino]hexanoic Acid]	540	441 nm	25,300 l/mol*cm	559	24,200 l/mol*cm	457
CC1(C)CC(=O)C=C2Oc3cc(N(CCCCCC(=O)O)CCCS(=O)(=O)[O-])ccc3C=C21.[Na+] [Compound 37, 3-[5-carboxypentyl-(8,8-dimethyl-6-oxo-7H-xanthene-3-yl)amino]propane-1-sulfonate Sodium Salt]	538	439 nm	27,000 l/mol*cm	553	26,000 l/mol*cm	454
CC1(C)CC(=O)C(S(=O)(=O)[O-])=C2Oc3cc(OCCCCCC(=O)O)ccc3C=C21.[Na+] [Compound 40, 6-(5-carboxypentoxy)-1,1-dimethyl-3-oxo-2H-xanthene-4-sulfonate Sodium Salt]	487	403 nm	19,500 l/mol*cm	483	21,000 l/mol*cm	407
CC1=CC(C)(C)N(CCCCCC(=O)O)c2cc3c(cc21)C=C1C(=CC(=O)CC1(C)C)O3 [Compound 41, 6-(2,2,4,7,7-pentamethyl-9-oxo-8H-chromeno[3,2-g]quinolin-1-yl)hexanoic Acid]	557	463 nm	24,000 l/mol*cm	575	23,000 l/mol*cm	460
CC1=CC(C)(C)N(CCCCCC(=O)O)c2cc3c(cc21)C=C1C(=C(S(=O)(=O)[O-])C(=O)CC1(C)C)O3.[Na+] [Compound 42, 1-(5-carboxypentyl)-2,2,4,7,7-pentamethyl-9-oxo-8H-chromeno[3,2-g]quinoline-10-sulfonate Sodium Salt]	559	473 nm	30,000 l/mol*cm	578	28,000 l/mol*cm	487
CCN(CC)c1ccc2c(c1)OC1=Cc3[o+]c4cc(N(CC)CC)ccc4c(-c4ccccc4C(=O)O)c3C(C)(C)C1=C2.[Cl-] [Compound 46, 2-[3,9-bis(diethylamino)-13,13-dimethyl-chromeno[3,2-b]xanthene-5-ium-14-yl]benzoic Acid Chloride Salt]	710	664 nm	60,000 l/mol*cm	711	42000 L/mol/cm	663
CCN(CC)c1ccc2cc3c([o+]c2c1)C=C1Oc2cc(N(CC)CCCCCC(=O)O)ccc2C=C1C3(C)C.[Cl-] [Compound 47, 6-[[9-(diethylamino)-13,13-dimethyl-chromeno[3,2-b]xanthene-7-ium-3-yl]-ethyl-amino]hexanoic Acid Chloride Salt]	713	679 nm	80,300 l/mol*cm	710	37000 L/mol/cm	670
